For one data set, the system named is human erythrocytes. As to the kind of experiment: Hemolytic assay. The note with it: 1 h at 37° C., 100% of hemolysis was not observed.
For the next data set, the system named is E. coli (ATCC 25922). As to the kind of experiment: Membrane polarization assay with DiSC3(5). The class given is cell-based, Escherichia coli. The following applies: melittin positive control. As to the method: When the cytoplasmic membrane is intact, the fluorescent probe DiSC3(5) accumulates into the cytoplasmic membrane and then aggregates, causing self-quenching of the fluorescence. In the presence of a membrane-depolarizing agent, DiSC3(5) is released into the medium, leading to an increase in fluorescence that can be monitored over time. The experiment was performed as previously described (André et al., ACS Chem. Biol. 2015 Jul. 30; 10(10): 2257-66). Briefly, exponentially growing bacteria were centrifuged (1000×g, 10 min, 4° C.), washed with PBS and re-suspended in the same buffer to an A630 of 0.1; then 700 µL of bacteria were pre-incubated with 1 μM DiSC3(5) in the dark during 10 min at 37° C., and then 100 μL of 1 mM KCl were added in order to equilibrate the cytoplasmic and external K+ concentrations. […] Three independent experiments were performed and results correspond to a representative experiment with negative (PBS) and positive (melittin) controls.

Another data set relates to E. coli ATCC 25922. As to the kind of experiment: SYTOX Green uptake assay (cytoplasmic membrane permeabilization). The class given is cell-based, Escherichia coli. The note with it: 5 μM, positive control. The method, then: The guavanin 2-induced permeabilization of the bacterial cytoplasmic plasma membrane of E. coli ATCC 25922 was determined by fluorometric measurement of SYTOX green (SG) influx (Thevissen et al., Appl. Environ. Microbiol. 1999 December; 65(12): 5451-8). SG is a high-affinity nucleic acid dye that is impermeant to live cells. When the cell membrane is damaged, this dye penetrates into the cell and binds to intracellular DNA, leading to an increase in fluorescence. For SG uptake assay, exponentially growing bacteria (6×10^5 CFU·mL^−1) were re-suspended in PBS after centrifugation (1000×g, 10 min, 4° C.) and washing steps. 792 μL of the bacterial suspension was pre-incubated with 8 μL of 100 μM SG during 30 min at 37° C. in the dark. […] Three independent experiments were performed and results correspond to a representative experiment with negative (PBS) and positive (melittin) controls.

The subject of data set [1] is bioluminescent engineered P. aeruginosa strain H1001. As to the kind of experiment: Antimicrobial activity by bioluminescence assay (SPOT-synthesized peptides). In kind it is cell-based, Pseudomonas aeruginosa. The note with it: SPOT-synthesized unpurified crude peptide (~70% purity). The method, then: A peptide array composed of 20 peptides (15 guavanins, 4 Pg-AMP1 fragments and magainin 2) was designed and synthesized by Kinexus Bioinformatics Corporation (Vancouver, BC). Peptides were produced in a standard mass of 80 μg by using cellulose support in SPOT technology, as previously described by Winkler et al. Methods Mol. Biol. 2009; 570: 157-74. The crude synthetic peptides were obtained from cellulose membrane discs that had already been treated with ammonia gas to release the peptides from the membrane. Peptides were then dissolved overnight in distilled water and subsequently evaluated for their biological activities, as described below.
The antimicrobial activity of the synthesized peptides was evaluated against an engineered luminescent Pseudomonas aeruginosa H1001 strain in 96-well microplates, as described previously with a few modifications (Hilpert & Hancock, Nat. Protoc. 2007; 2(7): 1652-60). […] Luminescence was measured on a Tecan […]luor Plus Microplate Reader (Tecan US, Morrisville, N.C.). The antimicrobial activity was evaluated by the ability of the peptides to reduce the luminescence of P. aeruginosa-lux strain compared to untreated cells. […]

Another data set is described as follows: in vitro. The following applies: human.
Data set [2] has as its system Listeria ivanovii Li4pVS2.
Protocol: Staphylococcus aureus ATCC 25923, Enterococcus faecalis ATCC 29212, Escherichia coli ATCC 25922, Pseudomonas aeruginosa ATCC 27853, Acinetobacter baumannii ATCC 19606 and Klebsiella pneumoniae ATCC 13883 were cultured in Lysogeny Broth (LB). The bacteria Streptococcus pyogenes ATCC 19615 and Listeria ivanovii Li 4pVS2 were cultured in Brain Heart Infusion (BHI) broth, whereas Candida species (C. albicans ATCC 90028 and C. parapsilosis ATCC 22019) were cultured in Yeast Peptone Dextrose (YPD) medium. Logarithmic phase culture of bacteria and yeasts were centrifuged and suspended in MH (Mueller Hinton) broth to an A630 of 0.01 (˜10^6 CFU·mL^−1), except for S. pyogenes, L. ivanovii and E. faecalis that were suspended in their respective growth medium. […] After 18 h incubation at 37° C. (30° C. for yeasts), the antimicrobial susceptibility was monitored by measuring the change in A630 using a microplate reader (UVM 340, Asys Hitech). […] Each experiment was performed in triplicate with positive (0.7% formaldehyde) and negative (without peptide) inhibition controls.
In data set [3] the test system is Acinetobacter baumannii ATCC 19606. As to the kind of experiment: MIC, two-fold serial dilution in microtitre plates. In kind it is cell-based. The method, then: (§1) After 18 h incubation at 37° C.
For data set [4], the system named is Escherichia coli ATCC 25922. As to the kind of experiment: MIC, two-fold serial dilution in microtitre plates. In kind it is cell-based. The note with it: average of three independent experiments. The method, then:
as §1

The subject of a further data set is HEK-293 cells. As to the kind of experiment: Cytotoxicity, MTT-based microassay. The following applies: 72 h, read-out: Active Concentration (inhibitory concentration 50, IC50). In kind it is cell-based, human. The method, then: HEK-293 cells were cultured in DMEM medium, and incubated at 37° C. in a humidified atmosphere of 5% CO2. Cell viability was quantified after peptide incubation using a methylthiazolyldiphenyl-tetrazolium bromide (MTT)-based microassay (Riss et al., (eds. Sittampalam, G. et al.) (Bethesda (Md.), 2004)). […] Then, 10 μl of MTT (5 mg·mL^−1 in PBS) was added to each well and the cells were further incubated for 4 h in the dark. The formazan crystals formed by mitochondrial reductases in intact cells are insoluble in aqueous solutions and precipitate. Formazan crystals were dissolved using a solubilization solution (40% dimethylformamide in 2% glacial acetic acid, 16% sodium dodecyl sulfate, pH 4.7) followed by 1 h incubation at 37° C. under shaking (150 rpm). Finally, the absorbance of the resuspended formazan was measured at 570 nm. Data were analyzed with GraphPad Prism® 5.0 software to determine the inhibitory concentration 50 (IC50), which corresponds to the peptide concentration producing 50% cell death. Results were expressed as the mean of three independent experiments performed in triplicate.

No end group written: not given here.

Protocol for human erythrocytes: (§2) Fresh human venous blood was collected from volunteers in Vacutainer collection tubes containing sodium heparin as an anticoagulant (BD Biosciences, Franklin Lakes, N.J.). The blood was centrifuged at 1500 rpm and the serum was removed and the blood cells were replaced and washed 3 times with the same volume of sterile NaCl 0.85% solution. Concentrated red blood cells were diluted tenfold in NaCl 0.85% solution and then exposed at two-fold dilutions of peptides for 1 h at 37° C., at identical concentrations used for antimicrobial assays, in the ratio of 1:1 (v/v), achieving a final volume of 100 uL. The assay was carried out in 96-well polypropylene microtiter plates. The positive control wells contained 1% of Triton X-100, representing 100% cell lysis, and negative control wells contained sterile saline. Hemoglobin release was monitored chromogenically at 546 nm using a microplate reader.
Protocol for in vitro: as §2

In the data set on human erythrocytes, `N=C(N)NCCC[C@H](NC(=O)CNC(=O)[C@H](CO)NC(=O)CNC(=O)[C@H](Cc1ccc(O)cc1)NC(=O)CNC(=O)CNC(=O)CNC(=O)[C@H](Cc1ccc(O)cc1)NC(=O)[C@H](CCCNC(=N)N)NC(=O)CNC(=O)CNC(=O)CNC(=O)[C@H](Cc1ccc(O)cc1)NC(=O)CNC(=O)CNC(=O)[C@H](Cc1ccc(O)cc1)NC(=O)CNC(=O)[C@@H](N)Cc1ccc(O)cc1)C(=O)NCC(N)=O` [Fragment 3] yielded a Hemolysis above 200 µg/mL.

Consider `CC[C@H](C)[C@H](NC(=O)CN)C(=O)NCC(=O)N[C@@H](C)C(=O)N[C@H](C(=O)N[C@@H](CC(C)C)C(=O)N[C@@H](CCCCN)C(=O)N[C@H](C(=O)N[C@@H](CC(C)C)C(=O)N[C@H](C(=O)N[C@H](C(=O)NCC(=O)N[C@@H](CC(C)C)C(=O)N1CCC[C@H]1C(=O)N[C@@H](C)C(=O)N[C@@H](CC(C)C)C(=O)N[C@H](C(=O)N[C@@H](CO)C(=O)N[C@@H](Cc1c[nH]c2ccccc12)C(=O)N[C@H](C(=O)N[C@@H](CCCCN)C(=O)N[C@@H](CCCNC(=N)N)C(=O)N[C@@H](CCCCN)C(=O)N[C@@H](CCCNC(=N)N)C(=O)N[C@@H](CCC(N)=O)C(=O)N[C@@H](CCC(N)=O)C(N)=O)[C@@H](C)CC)[C@@H](C)CC)[C@@H](C)O)[C@@H](C)O)C(C)C)C(C)C` [melittin], for which the “DiSC3(5) fluorescence (membrane potential)” value in the data set with E. coli (ATCC 25922) is listed as “rapid increase in the fluorescence signal”. The “SYTOX Green (SG) fluorescence signal” value with E. coli ATCC 25922 was “rapid and maximal SG fluorescence signal”.

With GQPVGQGVERSHDDNRNQPR-NH2 [Fragment 4], the Hemolysis with human erythrocytes was above 200 µg/mL.

Turning to “H-GIGKFLHSAKKFGKAFVGEIMNS-OH [Magainin 2, reference compound]”, the Hemolysis in the data set on human erythrocytes was above 200 µg/mL. The molecule also registered a minimal inhibitory concentration (MIC) in data set [1] of 100 µg/mL.

Consider RAYMEALRQAERLGNRTARR-NH2 [Guavanin 9], for which, in the data set with human erythrocytes, the Hemolysis is above 200 µg/mL.

For RKLMELYEQAIRYGKRSYRR-NH2 [Guavanin 12], the Hemolysis in the data set with human erythrocytes is above 200 µg/mL.

As for RKLMEMYEEAFRYFNRISRR-NH2 [Guavanin 5], in the data set with human erythrocytes, the Hemolysis is above 200 µg/mL.

On to RKLVECYERAERDANRSGRR-NH2 [Guavanin 15], for which the Hemolysis in the data set with human erythrocytes is above 200 µg/mL.

For the molecule RKYMRQYEEAIRDGNRSIRR-NH2 [Guavanin 3], the Hemolysis with human erythrocytes is above 200 µg/mL.

Consider RQIYESIEQALRRGYRSYRR-NH2 [Guavanin 7], for which the Hemolysis in the data set with human erythrocytes is above 200 µg/mL.

With RQLMELIEQAERYGNRFYRR-NH2 [Guavanin 11], the Hemolysis with human erythrocytes is above 200 µg/mL.

RQYMRQIEQALRYGYRISRR-NH2 [Guavanin 2] registered a CC50 at 1 h in “in vitro” above 200 µM. Also, the “Active Concentration (MIC)” value in data set [2] was 50 µM; in [3], 6.25 µM; in data set [4], 6.25 µM. Moreover, the Hemolysis in the data set with human erythrocytes is above 200 µg/mL. Moreover, the IC50 in the data set with HEK-293 cells was above 200 µM.

In the data set with human erythrocytes, RQYMRYLEQAERYVNRNLRR-NH2 [Guavanin 4] registered a Hemolysis above 200 µg/mL.

As for RRGMKQYERISRDANRSYRR-NH2 [Guavanin 1], the Hemolysis with human erythrocytes was above 200 µg/mL.

In the data set with human erythrocytes, RRYMECYEQAERYFRRFGRR-NH2 [Guavanin 13] registered a Hemolysis above 200 µg/mL.

RSFMKCYEQASRYGNRILRR-NH2 [Guavanin 14] registered a Hemolysis in the data set on human erythrocytes above 200 µg/mL.

Molecule RSIMELYKQASRSFNRGIRR-NH2 [Guavanin 6] came in with a Hemolysis in the data set on human erythrocytes above 200 µg/mL.

The molecule RSYYEAYERALRKGQRGIRR-NH2 [Guavanin 8] came in with a Hemolysis in the data set on human erythrocytes above 200 µg/mL.

On to RYGYGGYGGGRYGGGYGSGR-NH2 [Fragment 2], for which the Hemolysis with human erythrocytes was 100 µg/mL; in the data set on human erythrocytes (listed as 2nd fragment), “hemolytic”.

Take RYLMEYAEQAKRDAKRAYRR-NH2 [Guavanin 10]: the Hemolysis in the data set on human erythrocytes was above 200 µg/mL.

With SSRMECYEQAERYGYGGYGG-NH2 [Fragment 1], the Hemolysis in the data set on human erythrocytes is above 200 µg/mL.
